Measurements: patent US20070117770A1, “Human ribosomal DNA (rDNA) and ribosomal RNA (rRNA) nucleic acids and uses thereof” (Cylene Pharmaceuticals, Inc., priority 2005, published 2007)

Key:
ErbB4(h) = ErbB4(h) (Homo sapiens, UniProt Q15303); test: Protein kinase inhibition assay; assay type: biochemical; settings: read-out: percent residual activity of ErbB4(h)
Description: (§1) Certain compounds were tested for activity in protein kinase inhibition assays. All substrates were dissolved and diluted to working stocks in de-ionized water, apart from histone H1 (10× working stock in 20 mM MOPS pH 7.0), PDKtide (10× working stock in 50 mM Tris pH 7.0) ATF2 (which is typically stored at a 20× working stock in 50 mM Tris pH 7.5, 150 mM NaCl, 0.1 mM EGTA, 0.03% Brij-35, 50% glycerol, 1 mM benzamidine, 0.2 mM PMSF and 0.1% R-mercaptoethanol), KKLNRTLSFAEPG (SEQ ID NO:203) and RRRLSFAEPG (SEQ ID NO:204) (50 mM HEPES pH 7.4) and GGEEEEYFELVKKKK (SEQ ID NO:205) (20 mM MOPS pH 7.0). All kinases were pre-diluted to a 10× working concentration prior to addition into the assay. The composition of the dilution buffer for each kinase is detailed below.
(§2) In a final reaction volume of 25 μl, ErbB4 (h) (5-10 mU) is incubated with 8 mM MOPS pH 7.0, 0.2 mM EDTA, 2.5 mM MnCl2, 0.1 mg/ml poly(Glu, Tyr) 4:1, 10 mM MgAcetate and [gamma-33P-ATP] (specific activity approx. 500 cpm/pmol, concentration as required). The reaction is initiated by the addition of the MgATP mix. After incubation for 40 minutes at room temperature, the reaction is stopped by the addition of 5 μl of a 3% phosphoric acid solution. 10 ll of the reaction is then spotted onto a Filtermat A and washed three times for 5 minutes in 75 mM phosphoric acid and once in methanol prior to drying and scintillation counting.

FGFR4(h) = FGFR4(h) (Homo sapiens, UniProt P22455); test: Protein kinase inhibition assay; assay type: biochemical; settings: read-out: percent residual activity of FGFR4(h)
Chain of FGFR4(h) (P22455 22-802): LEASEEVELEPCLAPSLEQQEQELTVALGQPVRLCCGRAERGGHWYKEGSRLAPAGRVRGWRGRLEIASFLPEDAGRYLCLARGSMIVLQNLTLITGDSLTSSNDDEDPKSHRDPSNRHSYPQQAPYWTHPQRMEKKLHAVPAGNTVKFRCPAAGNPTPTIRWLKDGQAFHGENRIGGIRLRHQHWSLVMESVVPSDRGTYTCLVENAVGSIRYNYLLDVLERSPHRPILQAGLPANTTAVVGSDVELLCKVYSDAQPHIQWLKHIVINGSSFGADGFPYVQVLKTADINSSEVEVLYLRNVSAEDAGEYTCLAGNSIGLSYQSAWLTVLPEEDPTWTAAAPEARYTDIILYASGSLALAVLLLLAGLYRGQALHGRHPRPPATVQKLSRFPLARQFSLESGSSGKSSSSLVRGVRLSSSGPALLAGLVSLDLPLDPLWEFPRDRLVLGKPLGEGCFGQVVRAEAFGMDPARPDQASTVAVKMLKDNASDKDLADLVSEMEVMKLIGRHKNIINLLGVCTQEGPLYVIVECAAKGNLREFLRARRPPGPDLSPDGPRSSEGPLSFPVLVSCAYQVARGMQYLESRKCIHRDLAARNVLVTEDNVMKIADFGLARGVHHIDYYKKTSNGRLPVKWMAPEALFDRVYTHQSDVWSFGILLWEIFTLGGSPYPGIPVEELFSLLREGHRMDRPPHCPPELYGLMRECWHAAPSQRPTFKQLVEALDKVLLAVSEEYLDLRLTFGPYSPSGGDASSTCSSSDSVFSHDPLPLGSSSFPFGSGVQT
Description: as §1
as §2, with “μl, FGFR4” for “μl, ErbB4”, “EDTA, 10” for “EDTA, 2.5”, “10 μl” for “10 ll”

Hck(h) = Hck(h) (Homo sapiens, UniProt P08631); test: Protein kinase inhibition assay; assay type: biochemical; settings: read-out: percent residual activity of Hck(h)
Chain of Hck(h) (P08631 whole entry): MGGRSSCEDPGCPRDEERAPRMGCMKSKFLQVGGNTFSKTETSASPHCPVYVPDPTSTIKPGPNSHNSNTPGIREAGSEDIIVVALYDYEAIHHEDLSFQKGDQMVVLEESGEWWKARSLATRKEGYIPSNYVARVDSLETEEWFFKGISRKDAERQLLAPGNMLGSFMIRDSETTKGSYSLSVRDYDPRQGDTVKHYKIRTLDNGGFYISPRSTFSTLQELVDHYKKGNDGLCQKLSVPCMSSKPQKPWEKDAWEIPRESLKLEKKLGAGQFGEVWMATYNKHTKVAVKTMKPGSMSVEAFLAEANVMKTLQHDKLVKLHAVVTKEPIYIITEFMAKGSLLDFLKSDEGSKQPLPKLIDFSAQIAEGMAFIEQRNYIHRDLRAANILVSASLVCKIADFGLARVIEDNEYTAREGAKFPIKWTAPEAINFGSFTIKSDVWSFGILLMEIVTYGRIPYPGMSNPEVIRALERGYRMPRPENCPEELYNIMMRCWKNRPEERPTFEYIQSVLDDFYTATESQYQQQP
Description: as §1
(§3) In a final reaction volume of 25 μl, Hck (h) (5-10 mU) is incubated with 8 mM MOPS pH 7.0, 0.2 mM EDTA, 250 μM KVEKIGEGTYGVVYK (Cdc2 peptide) (SEQ ID NO:211), 10 mM MgAcetate and [gamma-33P-ATP] (specific activity approx. 500 cpm/pmol, concentration as required). The reaction is initiated by the addition of the MgATP mix. After incubation for 40 minutes at room temperature, the reaction is stopped by the addition of 5 μl of a 3% phosphoric acid solution. […]

PKG1β(h) = PKG1β(h) (Homo sapiens, UniProt Q13976); test: Protein kinase inhibition assay; assay type: biochemical; settings: read-out: percent residual activity of PKG1β(h)
Chain of PKG1β(h) (Q13976 1-686 isoform Q13976-2): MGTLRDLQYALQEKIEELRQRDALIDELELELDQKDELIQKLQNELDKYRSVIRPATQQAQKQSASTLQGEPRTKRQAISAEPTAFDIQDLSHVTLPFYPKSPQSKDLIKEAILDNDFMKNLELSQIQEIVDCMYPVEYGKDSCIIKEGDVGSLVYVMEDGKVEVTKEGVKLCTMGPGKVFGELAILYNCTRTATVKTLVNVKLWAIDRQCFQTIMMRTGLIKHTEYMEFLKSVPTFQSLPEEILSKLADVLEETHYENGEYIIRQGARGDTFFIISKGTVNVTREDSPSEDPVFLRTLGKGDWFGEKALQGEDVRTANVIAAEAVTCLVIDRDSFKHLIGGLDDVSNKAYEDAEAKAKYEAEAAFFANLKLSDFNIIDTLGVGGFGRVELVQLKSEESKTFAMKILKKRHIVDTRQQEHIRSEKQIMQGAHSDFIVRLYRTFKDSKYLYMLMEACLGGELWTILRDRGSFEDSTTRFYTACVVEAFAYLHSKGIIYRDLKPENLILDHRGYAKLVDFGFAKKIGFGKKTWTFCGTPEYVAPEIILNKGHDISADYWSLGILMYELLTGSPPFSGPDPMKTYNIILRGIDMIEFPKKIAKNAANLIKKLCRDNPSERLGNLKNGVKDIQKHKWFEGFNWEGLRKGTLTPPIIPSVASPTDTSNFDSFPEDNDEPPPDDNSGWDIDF
Description: as §1
as §3, with “PKG1β” for “Hck”, “10” for “250”, “cGMP, 200 μM RRRLSFAEPG” for “KVEKIGEGTYGVVYK (Cdc2 peptide)”, “NO:223),” for “NO:211),”

Plk3(h) = Plk3(h) (Homo sapiens, UniProt Q9H4B4); test: Protein kinase inhibition assay; assay type: biochemical; settings: read-out: percent residual activity of Plk3(h)
Chain of Plk3(h) (Q9H4B4 whole entry): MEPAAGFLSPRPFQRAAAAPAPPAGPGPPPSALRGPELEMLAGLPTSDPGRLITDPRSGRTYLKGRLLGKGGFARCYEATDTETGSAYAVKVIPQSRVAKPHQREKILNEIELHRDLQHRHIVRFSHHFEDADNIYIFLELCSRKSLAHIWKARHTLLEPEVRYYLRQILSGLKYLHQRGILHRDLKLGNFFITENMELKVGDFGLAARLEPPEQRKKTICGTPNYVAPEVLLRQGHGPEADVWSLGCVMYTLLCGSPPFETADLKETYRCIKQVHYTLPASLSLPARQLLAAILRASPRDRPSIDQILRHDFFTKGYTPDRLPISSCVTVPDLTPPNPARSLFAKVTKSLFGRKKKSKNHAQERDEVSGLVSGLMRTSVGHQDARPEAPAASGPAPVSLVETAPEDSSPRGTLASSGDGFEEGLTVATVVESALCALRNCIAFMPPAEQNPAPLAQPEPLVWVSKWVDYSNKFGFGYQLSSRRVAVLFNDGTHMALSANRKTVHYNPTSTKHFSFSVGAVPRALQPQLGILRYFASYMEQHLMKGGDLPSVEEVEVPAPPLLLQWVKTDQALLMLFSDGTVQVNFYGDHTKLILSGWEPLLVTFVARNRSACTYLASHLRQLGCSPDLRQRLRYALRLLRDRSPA
Description: as §1
as §2, with “μl, Plk3” for “μl, ErbB4”, “EDTA, 2” for “EDTA, 2.5 mM MnCl2, 0.1”, “mg/ml casein,” for “mg/ml poly(Glu, Tyr) 4:1,”, “10 μl” for “10 ll”, “a P30 filtermat” for “a Filtermat A”

HCT116 cells = test: DNA synthesis (BrdU-ELISA); assay type: cell-based; settings: for A-1 a concentration at which many of the cells were dead
Description: Effects of compound A-1 and compound B-1 on DNA synthesis, RNA synthesis and protein synthesis were determined in HCT116 cells. HCT116 cells were plated overnight at 100,000 cells per mL. Next day cells were treated with increasing amounts of either compound A-1 or compound B-1 followed by one hour incubation with BrdU label (from a BrdU Cell proliferation Assay Kit, Calbiochem) to monitor DNA synthesis; […] of ^3H-uridine to monitor total RNA synthesis; […] of ^3H-methionine to monitor protein synthesis or plain media to monitor RNA Polymerase II-dependent RNA synthesis. DNA synthesis was assessed using a BrdU-ELISA (BrdU Cell proliferation Assay Kit, Calbiochem). To measure total RNA synthesis, total RNA from treated cells was isolated with a RNease kit (QIAGEN), levels of total RNA were assessed with Ribogreen reagent (Invitrogen) and the newly synthesized tritiated RNA was measured in a scintillation Counter (Perkin Elmer). To measure effects on protein synthesis, cells were lysed in a RIPA buffer, and total protein was precipitated with 10% TCA on a glass-filters. Newly synthesized tritiated protein was measured in a scintillation Counter (Perkin Elmer). Effects of drugs on […] RNA synthesis were assessed by monitoring levels of a c-myc mRNA, which has a relatively short half-life of approximately 30 minutes, by Taqman qRT-PCR (ABI).

Chain of ErbB4(h) (Q15303 26-1308): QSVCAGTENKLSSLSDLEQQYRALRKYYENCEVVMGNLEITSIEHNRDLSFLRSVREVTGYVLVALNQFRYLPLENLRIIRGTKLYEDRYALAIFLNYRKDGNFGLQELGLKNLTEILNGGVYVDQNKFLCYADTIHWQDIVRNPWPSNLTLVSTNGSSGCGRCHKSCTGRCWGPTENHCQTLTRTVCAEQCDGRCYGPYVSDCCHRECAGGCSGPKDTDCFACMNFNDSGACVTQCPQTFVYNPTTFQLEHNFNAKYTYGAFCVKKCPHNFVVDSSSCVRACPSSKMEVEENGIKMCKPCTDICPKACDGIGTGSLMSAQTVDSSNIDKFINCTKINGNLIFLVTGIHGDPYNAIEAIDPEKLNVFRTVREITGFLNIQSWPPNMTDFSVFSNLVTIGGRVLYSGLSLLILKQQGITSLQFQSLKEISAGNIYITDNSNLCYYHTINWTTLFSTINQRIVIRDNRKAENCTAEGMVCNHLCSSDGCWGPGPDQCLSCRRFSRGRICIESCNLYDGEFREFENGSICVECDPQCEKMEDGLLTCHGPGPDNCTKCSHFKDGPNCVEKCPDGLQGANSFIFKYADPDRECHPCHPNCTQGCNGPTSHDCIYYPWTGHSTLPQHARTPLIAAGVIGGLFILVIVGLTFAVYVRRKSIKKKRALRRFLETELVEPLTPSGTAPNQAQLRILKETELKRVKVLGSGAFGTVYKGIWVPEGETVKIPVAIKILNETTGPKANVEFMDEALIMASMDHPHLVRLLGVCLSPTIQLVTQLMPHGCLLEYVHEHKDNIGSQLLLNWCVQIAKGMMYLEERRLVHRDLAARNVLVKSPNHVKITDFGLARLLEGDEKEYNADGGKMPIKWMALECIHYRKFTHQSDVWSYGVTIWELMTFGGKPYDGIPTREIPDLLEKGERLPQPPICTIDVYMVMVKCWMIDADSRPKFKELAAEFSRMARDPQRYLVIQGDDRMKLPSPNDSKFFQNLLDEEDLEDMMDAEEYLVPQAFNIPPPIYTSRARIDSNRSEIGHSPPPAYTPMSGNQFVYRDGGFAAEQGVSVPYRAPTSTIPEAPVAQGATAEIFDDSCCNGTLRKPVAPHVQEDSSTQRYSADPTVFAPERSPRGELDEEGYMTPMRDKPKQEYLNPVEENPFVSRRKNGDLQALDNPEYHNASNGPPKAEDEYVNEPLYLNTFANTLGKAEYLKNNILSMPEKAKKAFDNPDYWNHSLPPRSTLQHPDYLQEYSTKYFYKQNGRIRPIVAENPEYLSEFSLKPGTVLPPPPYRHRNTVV

remaining activity at 2.5 µM (ErbB4(h)) [%] | remaining activity at 2.5 µM (FGFR4(h)) [%] | remaining activity at 2.5 µM (Hck(h)) [%] | remaining activity at 2.5 µM (PKG1β(h)) [%] | remaining activity at 2.5 µM (Plk3(h)) [%] | Compound | concentration that significantly reduced DNA synthesis (HCT116 cells) [µM]
107 | 104 | 89 | 107 | 86 | CC(=O)N1CCN(c2ccc3c(=O)c(C(=O)NCCN4CCCC4)c4n(C)c5ccccc5n4c3n2)CC1 [Compound B-1] | 30
92 | 112 | 84 | 48 | 92 | CN1CCCC1CCNC(=O)c1cn2c3c(c(N4CCC(c5cnccn5)C4)c(F)cc3c1=O)Oc1cc3ccccc3cc1-2 (stereo not drawn) [Compound A-1] | 10
